{
  "source": "paper PMC7324419",
  "about": "(Human Cell, 2020)",
  "key": {"[1]": {"tested_on": "A549 cell line (lung carcinoma from human)", "format": "cell-based", "details": "read-out: IC50 [µM] against A549"}, "[2]": {"tested_on": "HT29 cell line (colorectal adenocarcinoma from human)", "format": "cell-based", "details": "read-out: IC50 [µM] against HT29"}, "[3]": {"tested_on": "EAhy926 cell line (the human umbilical vein, somatic cell hybrid)", "format": "cell-based", "details": "read-out: IC50 [µM] against EA.hy9263"}, "[4]": {"target": "hyaluronidase from bovine testes Type I-S (Bos taurus, UniProt Q2YDK3)", "sequence (Q2YDK3 36-553 limits assumed)": "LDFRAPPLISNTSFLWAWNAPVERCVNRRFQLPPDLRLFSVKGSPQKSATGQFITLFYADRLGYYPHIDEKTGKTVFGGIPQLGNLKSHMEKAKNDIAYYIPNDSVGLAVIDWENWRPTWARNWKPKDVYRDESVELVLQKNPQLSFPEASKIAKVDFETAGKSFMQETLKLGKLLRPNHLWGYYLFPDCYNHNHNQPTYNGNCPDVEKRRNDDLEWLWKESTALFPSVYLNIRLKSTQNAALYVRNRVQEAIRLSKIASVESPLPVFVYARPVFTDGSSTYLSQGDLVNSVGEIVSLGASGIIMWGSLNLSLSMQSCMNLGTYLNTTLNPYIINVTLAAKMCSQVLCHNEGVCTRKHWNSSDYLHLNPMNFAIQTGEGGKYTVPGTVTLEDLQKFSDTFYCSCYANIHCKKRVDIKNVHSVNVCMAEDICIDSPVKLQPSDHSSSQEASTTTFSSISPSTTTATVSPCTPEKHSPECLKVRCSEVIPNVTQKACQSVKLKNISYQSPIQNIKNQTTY", "format": "biochemical", "details": "read-out: IC50 (µM) hyaluronidase inhibition"}},
  "data": [
    {"compound": "O=C(NCCNc1c2c(nc3ccccc13)CCCC2)c1ccccc1F", "note": "[Compound 1]", "values": [
      {"measurement": "IC50", "setting": "[1]", "value": 106, "unit": "µM"},
      {"measurement": "IC50", "setting": "[2]", "value": 68.4, "unit": "µM"}
    ]},
    {"compound": "O=C(NCCCNc1c2c(nc3ccccc13)CCCC2)c1ccccc1F", "note": "[Compound 2]", "values": [
      {"measurement": "IC50", "setting": "[1]", "value": 148, "unit": "µM"},
      {"measurement": "IC50", "setting": "[2]", "value": 50.2, "unit": "µM"}
    ]},
    {"compound": "O=C(NCCCNc1c2c(nc3ccccc13)CCCC2)c1cccc(F)c1", "note": "[Compound 5]", "values": [
      {"measurement": "IC50", "setting": "[1]", "value": 118, "unit": "µM"},
      {"measurement": "IC50", "setting": "[2]", "value": 44, "unit": "µM"}
    ]},
    {"compound": "COc1cc([C@@H]2c3cc4c(cc3[C@@H](O[C@@H]3O[C@@H]5CO[C@@H](C)O[C@H]5[C@H](O)[C@H]3O)[C@H]3COC(=O)[C@H]23)OCO4)cc(OC)c1O", "note": "[Compound C1, Etoposide]", "values": [
      {"measurement": "IC50", "setting": "[1]", "value": 451, "unit": "µM"},
      {"measurement": "IC50", "setting": "[3]", "value": 155, "unit": "µM"},
      {"measurement": "IC50", "setting": "[2]", "value": 654, "unit": "µM"}
    ]},
    {"compound": "O=c1[nH]cc(F)c(=O)[nH]1", "note": "[Compound C2, 5-fluorouracil]", "values": [
      {"measurement": "IC50", "setting": "[1]", "value": "> 1800", "unit": "µM"},
      {"measurement": "IC50", "setting": "[3]", "value": "> 1800", "unit": "µM"},
      {"measurement": "IC50", "setting": "[2]", "value": 1630, "unit": "µM"}
    ]},
    {"compound": "heparin [Compound C3]", "values": [
      {"measurement": "IC50", "setting": "[4]", "value": 56.4, "unit": "µM"}
    ]}
  ]
}
